Measurements as given in US20240358692A1, “TREATMENT OF SCLERODERMA” (Aisa Pharma, Inc., priority 2023, published 2024).

Test system: participants with SSc-RP
Experiment: Average duration of weekly RP attacks (minutes), patient diary
Format: in vivo, human
Excerpt: The absolute change in average duration of weekly RP attacks from baseline to the end of each dosing period was and will be a secondary outcome variable. The sponsor-developed participant-informed diary was and will be used to record data. Average duration of weekly RP attacks is defined as the total duration of RP attacks divided by total number of RP attacks within the last 7 days of each dosing period. Total duration of RP attacks during the last 7 days of screening period divided by the total number of RP attacks will be used as baseline for the analysis of all periods. The variable will be calculated similar to frequency data as before.

[1] = Pooled Cilnidipine 10 mg and Cilnidipine 10 mg + Tadalafil 5 mg, Excluding Outliers, ITT Population - Part A
[2] = Pooled Cilnidipine 10 mg and Cilnidipine 10 mg + Tadalafil 5 mg, ITT Population - Part A
[3] = Pooled Cilnidipine 10 mg and Cilnidipine 10 mg + Tadalafil 5 mg, by Baseline RCS, first subgroup of table, ITT Population - Part A
[4] = Pooled Cilnidipine 10 mg and Cilnidipine 10 mg + Tadalafil 5 mg, by Baseline RCS, second subgroup of table, ITT Population - Part A
[5] = Pooled Cilnidipine 20 mg and Cilnidipine 20 mg + Tadalafil 5 mg, Excluding Outliers, ITT Population - Part A
[6] = Pooled Cilnidipine 20 mg and Cilnidipine 20 mg + Tadalafil 5 mg, Excluding Outliers, by Baseline RCS, second RCS subgroup of table (not named), ITT Population - Part A
[7] = Pooled Cilnidipine 20 mg and Cilnidipine 20 mg + Tadalafil 5 mg, by Baseline RCS, first subgroup of table, ITT Population - Part A
[8] = Pooled Cilnidipine 20 mg and Cilnidipine 20 mg + Tadalafil 5 mg, by Baseline RCS, second RCS subgroup of table (not named), ITT Population - Part A
[9] = Pooled Cilnidipine 20 mg and Cilnidipine 20 mg + Tadalafil 5 mg, by Baseline RCS, second subgroup of table, ITT Population - Part A
[10] = Pooled Cilnidipine 20 mg and Cilnidipine 20 mg + Tadalafil 5 mg, last 7 days of dosing period, ITT Part A
[11] = Pooled Cilnidipine, Excluding Outliers, ITT Population - Part A
[12] = Pooled Cilnidipine, Excluding Outliers, by Baseline RCS, first RCS subgroup of table (not named), ITT Population - Part A

Compound: COCCOC(=O)C1=C(C)NC(C)=C(C(=O)OC/C=C/c2ccccc2)C1c1cccc([N+](=O)[O-])c1 (stereo not shown) [Cilnidipine]
- Percent Change from Baseline in average duration of weekly symptomatic RP attacks, Mean [1]: −22.40%
- Percent Change from Baseline in average duration of weekly symptomatic RP attacks, Median [1]: −33.84%
- Average Duration of Weekly Symptomatic RP Attacks Change from Baseline, Median (Pooled Cilnidipine 10 mg and Cilnidipine 10 mg + Tadalafil 5 mg, ITT Part A): -16.74 min
- Average Duration of Weekly RP Attacks (All Attacks), Change from Baseline, Median [2]: -8.48 min
- Average Duration of Weekly RP Attacks (All Attacks), Percent Change from Baseline, Median [2]: −21.20%
- Percent Change from Baseline in average duration of weekly symptomatic RP attacks, Mean (Pooled Cilnidipine 10 mg and Cilnidipine 10 mg + Tadalafil 5 mg, by Baseline RCS, first RCS subgroup of table (not named), ITT Population - Part A): −16.67%
- Average Duration of Weekly RP Attacks (All Attacks), Change from Baseline, Mean [3]: -4.13 min
- Average Duration of Weekly RP Attacks (All Attacks), Change from Baseline, Median [3]: -4.13 min
- Average Duration of Weekly RP Attacks (All Attacks), Mean [3]: 24.76 min
- Average Duration of Weekly RP Attacks (All Attacks), Median [3]: 24.76 min
- Average Duration of Weekly RP Attacks (All Attacks), Percent Change from Baseline, Mean [3]: −9.97%
- Average Duration of Weekly RP Attacks (All Attacks), Percent Change from Baseline, Median [3]: −9.97%
- Average Duration of Weekly RP Attacks (All Attacks), Change from Baseline, Mean [4]: -20.38 min
- Average Duration of Weekly RP Attacks (All Attacks), Change from Baseline, Median [4]: -20.38 min
- Average Duration of Weekly RP Attacks (All Attacks), Mean [4]: 34.17 min
- Average Duration of Weekly RP Attacks (All Attacks), Median [4]: 34.17 min
- Average Duration of Weekly RP Attacks (All Attacks), Percent Change from Baseline, Mean [4]: −37.36%
- Average Duration of Weekly RP Attacks (All Attacks), Percent Change from Baseline, Median [4]: −37.36%
- Average Duration of weekly symptomatic RP attacks, Mean (Pooled Cilnidipine 10 mg and Cilnidipine 10 mg + Tadalafil 5 mg, last 7 days of dosing period, ITT Part A): 29.46 min
- Change from Baseline in average duration of weekly symptomatic RP attacks, Mean [5]: -7.51 min
- Change from Baseline in average duration of weekly symptomatic RP attacks, Median [5]: -3.55 min
- Percent Change from Baseline in average duration of weekly symptomatic RP attacks, Mean [5]: −16.40%
- Percent Change from Baseline in average duration of weekly symptomatic RP attacks, Median [5]: −7.30%
- Change from Baseline in average duration of weekly symptomatic RP attacks, Mean [6]: -27.00 min
- Change from Baseline in average duration of weekly symptomatic RP attacks, Median [6]: -27.00 min
- Percent Change from Baseline in average duration of weekly symptomatic RP attacks, Mean [6]: −30.00%
- Percent Change from Baseline in average duration of weekly symptomatic RP attacks, Median [6]: −30.00%
- Average Duration of Weekly RP Attacks (All Attacks), Change from Baseline, Mean [7]: 0.00 min
- Average Duration of Weekly RP Attacks (All Attacks), Change from Baseline, Median [7]: 2.16 min
- Average Duration of Weekly RP Attacks (All Attacks), Mean [7]: 15.91 min
- Average Duration of Weekly RP Attacks (All Attacks), Median [7]: 14.27 min
- Average Duration of Weekly RP Attacks (All Attacks), Percent Change from Baseline, Mean [7]: −10.70%
- Average Duration of Weekly RP Attacks (All Attacks), Percent Change from Baseline, Median [7]: 17.86%
- Change from Baseline in average duration of weekly symptomatic RP attacks, Mean [8]: -27.00 min
- Change from Baseline in average duration of weekly symptomatic RP attacks, Median [8]: -27.00 min
- Percent Change from Baseline in average duration of weekly symptomatic RP attacks, Mean [8]: −30.00%
- Percent Change from Baseline in average duration of weekly symptomatic RP attacks, Median [8]: −30.00%
- Average Duration of Weekly RP Attacks (All Attacks), Change from Baseline, Mean [9]: -19.09 min
- Average Duration of Weekly RP Attacks (All Attacks), Change from Baseline, Median [9]: -19.09 min
- Average Duration of Weekly RP Attacks (All Attacks), Mean [9]: 62.73 min
- Average Duration of Weekly RP Attacks (All Attacks), Median [9]: 62.73 min
- Average Duration of Weekly RP Attacks (All Attacks), Percent Change from Baseline, Mean [9]: −23.33%
- Average Duration of Weekly RP Attacks (All Attacks), Percent Change from Baseline, Median [9]: −23.33%
- Average Duration of weekly symptomatic RP attacks, Mean [10]: 27.98 min
- Average Duration of weekly symptomatic RP attacks, Median [10]: 22.96 min
- Duration (change) (Pooled Cilnidipine (n = 7)): 20%
- Average Duration of weekly symptomatic RP attacks, Mean [11]: 21.70 min
- Average Duration of weekly symptomatic RP attacks, Median [11]: 30.45 min
- Percent Change from Baseline in average duration of weekly symptomatic RP attacks, Median [11]: −34.60%
- Average Duration of weekly symptomatic RP attacks, Mean [12]: 21.70 min
- Average Duration of weekly symptomatic RP attacks, Median [12]: 30.45 min
- Change from Baseline in average duration of weekly symptomatic RP attacks, Mean [12]: -7.67 min
- Change from Baseline in average duration of weekly symptomatic RP attacks, Median [12]: -10.33 min
- Percent Change from Baseline in average duration of weekly symptomatic RP attacks, Mean [12]: −32.23%
- Percent Change from Baseline in average duration of weekly symptomatic RP attacks, Median [12]: −34.60%
- Average Duration of Weekly Symptomatic RP Attacks Change from Baseline, Mean (Pooled Cilnidipine, ITT Part A): -7.67 min
- Average Duration of Weekly Symptomatic RP Attacks Change from Baseline, Median (Pooled Cilnidipine, ITT Part A): -10.33 min
- Average Duration of Weekly Symptomatic RP Attacks Percent Change from Baseline, Mean (Pooled Cilnidipine, ITT Part A): −32.23%
